Data set [1] concerns the target Disintegrin and metalloproteinase domain-containing protein 17 (Sus scrofa, UniProt O77636). In words: Inhibition of porcine TACE.
A short description of data set [2]: Dissociation constant, pKa in water. It is filed as physicochemical.

A value given as a limit tells only on which side of the number the result lay.

Disintegrin and metalloproteinase domain-containing protein 17, sequence (O77636 whole entry, the tested form may be a part): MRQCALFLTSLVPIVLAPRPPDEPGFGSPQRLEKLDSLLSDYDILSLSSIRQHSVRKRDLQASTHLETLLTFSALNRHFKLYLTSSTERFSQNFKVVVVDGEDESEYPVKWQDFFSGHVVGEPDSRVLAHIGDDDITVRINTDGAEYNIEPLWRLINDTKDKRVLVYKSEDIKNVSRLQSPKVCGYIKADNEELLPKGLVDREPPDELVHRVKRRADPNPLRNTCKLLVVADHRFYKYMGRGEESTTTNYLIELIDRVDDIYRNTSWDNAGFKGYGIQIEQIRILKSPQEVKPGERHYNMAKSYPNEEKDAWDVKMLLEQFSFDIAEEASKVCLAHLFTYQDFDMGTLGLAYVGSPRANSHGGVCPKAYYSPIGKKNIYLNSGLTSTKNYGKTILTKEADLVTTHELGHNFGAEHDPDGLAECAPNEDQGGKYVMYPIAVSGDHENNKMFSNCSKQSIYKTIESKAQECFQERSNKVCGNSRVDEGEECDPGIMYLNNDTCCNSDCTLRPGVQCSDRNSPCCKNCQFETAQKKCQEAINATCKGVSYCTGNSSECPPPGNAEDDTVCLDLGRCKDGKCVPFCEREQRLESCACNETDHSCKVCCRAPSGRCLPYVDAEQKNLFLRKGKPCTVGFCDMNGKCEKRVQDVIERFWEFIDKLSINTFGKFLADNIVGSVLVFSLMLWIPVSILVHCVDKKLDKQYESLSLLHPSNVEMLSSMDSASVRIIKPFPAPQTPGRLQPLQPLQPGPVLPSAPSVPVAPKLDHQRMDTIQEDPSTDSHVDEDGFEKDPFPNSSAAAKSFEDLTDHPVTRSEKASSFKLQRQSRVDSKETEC

As usually defined, the IC50 is the concentration at which inhibition is half-maximal. Lower therefore signals inhibition by little substance. What is called pKa is the pH at which an ionisable group is half protonated. Higher therefore signals a group that holds its proton tightly. Turning to `Cc1cc(COc2ccc(C3(N4CCN(C)CC4)C(=O)NC(=O)NC3=O)cc2)c2ccccc2n1`, the 50% inhibitory concentration (IC50) in data set [1] was found to be 91 nM. Further, the pKa in data set [2] worked out at 7.2.
The matching figures for `Cc1cc(COc2ccc([C@@]3(C)CCN([C@@H](C)C(=O)NO)C3=O)cc2)c2ccccc2n1`: under 1 nM and 9.
`Cc1cc(COc2ccc(C(=O)N[C@H]3CNC[C@@]34NC(=O)NC4=O)cc2)c2ccccc2n1` had a 50% inhibitory concentration (IC50) in data set [1] of 25 nM.
Molecule `Cc1cc(COc2ccc(NC(=O)C[C@H]3CCC[C@]34NC(=O)NC4=O)cc2)c2ccccc2n1` [listing 1 of 2 here] gave an IC50 in data set [1] of 17 nM.
Same read-out and setting: the same measure for `Cc1cc(COc2ccc(NC(=O)C[C@@H]3CCC[C@]34NC(=O)NC4=O)cc2)c2ccccc2n1`: 7400 nM; for `Cc1cc(COc2ccc(NC(=O)C[C@@H]3CCC[C@@]34NC(=O)NC4=O)cc2)c2ccccc2n1`: 11 nM; for `Cc1cc(COc2ccc(NC(=O)[C@H]3CCC[C@]34NC(=O)NC4=O)cc2)c2ccccc2n1`: 230 nM.
In data set [1], `Cc1cc(COc2ccc(NC(=O)[C@@H]3CCC[C@]34NC(=O)NC4=O)cc2)c2ccccc2n1` returned a concentration for half-maximal inhibition (IC50) of 64 nM.
On the same count and under the same terms, the same measure for `Cc1cc(COc2ccc(C(=O)NCC3NC(=O)NC3=O)cc2)c2ccccc2n1` (centres undefined): 98 nM; for `Cc1cc(COc2ccc(C(=O)N[C@@H]3CNC[C@]34NC(=O)NC4=O)cc2)c2ccccc2n1`: 900 nM.
For the molecule `Cc1cc(COc2ccc(NC(=O)C[C@H]3CCC[C@]34NC(=O)NC4=O)cc2)c2ccccc2n1` [listing 2 of 2 here], in data set [1], the 50% inhibitory concentration (IC50) came to 900 nM. The molecule further gave a pKa in data set [2] of 8.9.
